Where a chain is given by its changes, count along the chain named.
Legend:
[1] = biological target: T1, AR-Receptor (Homo sapiens, UniProt P10275); experiment: Functional Assay AR-Receptor (MDA-MB-453 cells, luciferase); type: cell-based; settings: antagonist effect in the presence of DHT 1 nM, 24 h, luciferase luminescence, read-out: AR antag KB
T1 sequence (P10275 1-920 Q868H): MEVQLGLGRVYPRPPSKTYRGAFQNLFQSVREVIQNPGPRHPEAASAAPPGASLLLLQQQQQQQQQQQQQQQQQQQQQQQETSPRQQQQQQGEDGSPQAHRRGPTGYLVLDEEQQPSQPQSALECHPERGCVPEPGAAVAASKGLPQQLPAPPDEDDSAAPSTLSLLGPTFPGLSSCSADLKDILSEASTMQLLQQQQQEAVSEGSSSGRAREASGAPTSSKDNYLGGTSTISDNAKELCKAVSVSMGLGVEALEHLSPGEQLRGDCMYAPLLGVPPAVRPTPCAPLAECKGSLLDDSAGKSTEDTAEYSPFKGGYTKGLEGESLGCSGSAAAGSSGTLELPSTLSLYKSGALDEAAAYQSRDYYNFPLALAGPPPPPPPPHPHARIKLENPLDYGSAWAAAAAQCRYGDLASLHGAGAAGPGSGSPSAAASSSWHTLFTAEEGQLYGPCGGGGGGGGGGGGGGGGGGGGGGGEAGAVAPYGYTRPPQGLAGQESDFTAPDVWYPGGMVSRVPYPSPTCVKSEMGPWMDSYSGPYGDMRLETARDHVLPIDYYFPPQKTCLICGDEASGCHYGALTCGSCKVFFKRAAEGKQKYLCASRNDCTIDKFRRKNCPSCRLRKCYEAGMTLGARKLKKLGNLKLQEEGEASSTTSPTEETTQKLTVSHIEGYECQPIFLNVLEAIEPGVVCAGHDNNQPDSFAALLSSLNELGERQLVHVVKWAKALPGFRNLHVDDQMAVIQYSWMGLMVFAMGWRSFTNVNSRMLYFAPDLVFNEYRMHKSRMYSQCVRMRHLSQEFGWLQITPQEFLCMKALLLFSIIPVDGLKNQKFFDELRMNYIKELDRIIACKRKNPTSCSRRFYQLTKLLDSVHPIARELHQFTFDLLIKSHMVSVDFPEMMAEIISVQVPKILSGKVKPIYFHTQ
Experimental: Functional Assay AR-Receptor
MDA-MB-453 cells were cultured in DMEM (ATCC, ref 30-2002), 10% FBS, 1% penicillin, 1% streptomycin, 75 μg/ml gentamycin.
The day before performing assay, the cells were trypsinized and seeded in a 384-well plate (Greiner, ref 781098) (8000 cells/well) in 50 μl of complete culture medium. Cells were stores at 37° C. in a 5% CO2 atmosphere overnight.
The medium was replaced by 50 μl complete growth medium with 0.1% FBS. Compounds were dispensed with Echo 550 (Labcyte) and incubated for 24 h at 37° C. in a 5% CO2 atmosphere. Antagonist effect was measured in the presence of DHT 1 nM.
After incubation, assay medium removed and 20 μl of 1× Promega lysis buffer were added to each well. The plate was incubated 15 minutes at RT and quick-frozen to −80° C. and the thaw to room temperature. 50 μl of luciferase substrate (E4550, Promega) were added to each well and luminescence (integration time 1000 msec) was read in an EnSpire multilabel reader (Perkin Elmer).

[2] = biological target: T2, Human Glucocorticoid Receptor (Homo sapiens, UniProt P04150); experiment: Competition Binding in IM-9 Human Glucocorticoid Receptor (GR IM-9); settings: cytosol from IM-9 cell line, 1.5 nM [3H]-Dexamethasone, 4° C. for 6 hours
T2 construct: endogenous in cells; host or cells: cytosol from IM-9 cell line
T2 sequence (P04150 1-777): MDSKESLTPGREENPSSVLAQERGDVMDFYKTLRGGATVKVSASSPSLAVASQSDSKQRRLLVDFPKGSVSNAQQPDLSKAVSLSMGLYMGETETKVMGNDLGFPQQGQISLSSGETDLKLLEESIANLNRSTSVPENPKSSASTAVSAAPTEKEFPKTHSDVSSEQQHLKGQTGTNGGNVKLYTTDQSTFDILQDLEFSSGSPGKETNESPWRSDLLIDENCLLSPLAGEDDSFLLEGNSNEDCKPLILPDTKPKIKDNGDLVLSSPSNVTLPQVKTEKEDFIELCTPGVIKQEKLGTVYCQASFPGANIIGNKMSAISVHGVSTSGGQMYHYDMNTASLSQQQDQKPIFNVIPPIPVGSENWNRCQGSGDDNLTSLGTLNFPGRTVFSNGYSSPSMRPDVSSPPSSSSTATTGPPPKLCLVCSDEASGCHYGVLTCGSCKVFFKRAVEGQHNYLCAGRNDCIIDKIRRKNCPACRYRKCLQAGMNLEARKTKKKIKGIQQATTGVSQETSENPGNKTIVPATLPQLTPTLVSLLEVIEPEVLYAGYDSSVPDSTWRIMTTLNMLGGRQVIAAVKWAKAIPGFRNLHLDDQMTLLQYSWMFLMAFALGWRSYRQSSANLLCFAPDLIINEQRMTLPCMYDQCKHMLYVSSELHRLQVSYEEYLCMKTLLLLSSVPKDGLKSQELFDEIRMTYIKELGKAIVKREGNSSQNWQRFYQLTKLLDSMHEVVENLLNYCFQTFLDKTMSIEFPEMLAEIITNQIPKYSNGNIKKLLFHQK
Method in brief: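 Radioligand competition using 100 μg IM-9 cell cytosol and 1.5 nM [3H]-dexamethasone, incubated 6 h at 4° C in TES/molybdate buffer, pH 7.4. Filtration on PEI-treated GF/B filters, scintillation counting; nonspecific binding defined with 10 μM triamcinolone.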

[3] = biological target: T3, human androgen receptor (Homo sapiens, UniProt P10275, T878A); experiment: Human Androgen Receptor Binding (radioligand binding, LnCap prostate cancer cell line); settings: LnCap cells, displacement of [^3H]-methyltrienolone, 2 hours at 37° C.; read-out: AR LNCaP
T3 construct: endogenously expressed human androgen receptor using the LnCap prostate cancer cell line; endogenous in cells; host or cells: LNCaP prostate cancer cell line (whole cells)
T3 sequence (P10275 1-920 T878A): T1 sequence (P10275 1-920 Q868H) with H868Q, T878A
Method in brief: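 Whole-cell displacement of [3H]-methyltrienolone from endogenous AR (T878A) in LnCap cells, in RPMI with 0.1% BSA and triamcinolone acetonide. Compounds 10 μM to 0.1 nM in 1:10 steps, 2 h at 37 °C; cells washed, SDS-lysed, bound radioactivity by scintillation counting for IC50.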

| Kb [1] [µM] | IC50 [2] [µM] | IC50 [3] [µM] | SMILES |
| --- | --- | --- | --- |
| ≥ 1 | < 0.1 |  | CC(=O)C1=C(C)NC(C)=C(C(=O)OC2CCC(F)(F)CC2)C1c1csc2ncccc12 (stereo not drawn) [Example C79, 4,4-difluorocyclohexyl 5-acetyl-2,6-dimethyl-4-(thieno[2,3-b]pyridin-3-yl)-1,4-dihydropyridine-3-carboxylate] |
| ≥ 1 | ≥ 1 |  | CC(=O)C1=C(C)NC(C)=C(C(=O)N(C)Cc2ccccc2)C1c1csc2ncccc12 (stereo not drawn) [Example C80, 5-Acetyl-N-benzyl-N,2,6-trimethyl-4-(thieno[2,3-b]pyridin-3-yl)-1,4-dihydropyridine-3-carboxamide] |
| ≥ 1 | < 0.1 |  | COC(=O)C1=C(C2CC2)NC(C2CC2)=C(C#N)C1c1csc2c(C#N)cccc12 (stereo not drawn) [Example C107, Methyl 5-cyano-4-(7-cyanobenzo[b]thiophen-3-yl)-2,6-dicyclopropyl-1,4-dihydropyridine-3-carboxylate] |
| ≥ 1 | < 0.1 |  | CC(=O)C1=C(C)NC(C)=C(C(=O)OCc2cccc(CN3CCN(C)CC3)c2)C1c1csc2c(Br)cccc12 (stereo not drawn) [Example C108, 3-((4-methylpiperazin-1-yl)methyl)benzyl 5-acetyl-4-(7-bromobenzo[b]thiophen-3-yl)-2,6-dimethyl-1,4-dihydropyridine-3-carboxylate] |
| < 0.1 | 0.1 to 1 |  | CC(=O)C1=C(C)NC(C2CC2)=C(C(=O)OCC2CC2)C1c1csc2cc(C#N)ccc12 (stereo not drawn) [Example C122, Cyclopropylmethyl 5-acetyl-4-(6-cyanobenzo[b]thiophen-3-yl)-2-cyclopropyl-6-methyl-1,4-dihydropyridine-3-carboxylate] |
| ≥ 1 | 0.1 to 1 |  | CC(=O)C1=C(C)NC(N)=C(C(=O)OC2CCCC2)C1c1csc2c(Br)cccc12 (stereo not drawn) [Example D6, Cyclopentyl 5-acetyl-2-amino-4-(7-bromobenzo[b]thiophen-3-yl)-6-methyl-1,4-dihydropyridine-3-carboxylate] |
| ≥ 1 | < 0.1 |  | COC(=O)C1=C(C)NC(N)=C(C(=O)OC)C1c1csc2c(C#N)cccc12 (stereo not drawn) [Example D7, Dimethyl 2-amino-4-(7-cyanobenzo[b]thiophen-3-yl)-6-methyl-1,4-dihydropyridine-3,5-dicarboxylate] |
| 0.1 to 1 |  | ≥ 1 | CC(=O)C1=C(C)NC(C2CC2)=C(C(=O)OCc2ccncc2)C1c1csc2ccccc12 (stereo not drawn) [Example J32, Pyridin-4-ylmethyl 5-acetyl-4-(benzo[b]thiophen-3-yl)-2-cyclopropyl-6-methyl-1,4-dihydropyridine-3-carboxylate] |
| 0.1 to 1 |  | 0.1 to 1 | CC(=O)C1=C(C)NC(C)=C(C(=O)OCc2ccncc2)C1c1csc2c(Br)cccc12 (stereo not drawn) [Example J33, Pyridin-4-ylmethyl 5-acetyl-4-(7-bromobenzo[b]thiophen-3-yl)-2,6-dimethyl-1,4-dihydropyridine-3-carboxylate] |
| 0.1 to 1 | < 0.1 |  | CC(=O)C1=C(C)NC(C2CC2)=C(C(=O)OCc2ccc(C#N)cc2)C1c1csc2ncccc12 (stereo not drawn) [Example J43, 4-cyanobenzyl 5-acetyl-2-cyclopropyl-6-methyl-4-(thieno[2,3-b]pyridin-3-yl)-1,4-dihydropyridine-3-carboxylate] |
| ≥ 1 | < 0.1 |  | CC(=O)C1=C(C)NC(C)=C(C(=O)OCc2ccccc2-c2ccncc2)C1c1csc2ncccc12 (stereo not drawn) [Example L5, 2-(pyridin-4-yl)benzyl 5-acetyl-2,6-dimethyl-4-(thieno[2,3-b]pyridin-3-yl)-1,4-dihydropyridine-3-carboxylate] |
| ≥ 1 | 0.1 to 1 |  | CC(=O)C1=C(C)NC(C)=C(C(=O)OCc2cncc(-c3ccncc3)c2)C1c1csc2ncccc12 (stereo not drawn) [Example L7, [3,4′-bipyridin]-5-ylmethyl 5-acetyl-2,6-dimethyl-4-(thieno[2,3-b]pyridin-3-yl)-1,4-dihydropyridine-3-carboxylate] |

Reference: patent US11453660B2, “Androgen receptor and glucocorticoid receptor modulators” (ONCOSTELLAE, S.L., priority 2017, dated 2022)
